Results as given in the NIST ThermoML archive (doi:10.1016/j.jct.2018.12.018).
Values joined by “and” are separate entries in the source; they are usually repeats but may differ in a detail not shown here. Identical values can stand only once.

Conditions: Liquid; for speed of sound: Frequency=3 MHz, Single path-length method; for mass density: Vibrating tube method

CC(C)O [propan-2-ol]
Conditions	mass density	speed of sound [m/s]
293.15 K, 100 kPa	785.4 kg/m3 and 785.46 kg/m3	1157.5
293.15 K, 1000 kPa	786.2 kg/m3	–
293.15 K, 5000 kPa	789.6 kg/m3	–
293.15 K, 10000 kPa	793.6 kg/m3	–
293.15 K, 15000 kPa	797.4 kg/m3	–
293.15 K, 20000 kPa	801.1 kg/m3	–
293.15 K, 25000 kPa	804.5 kg/m3	–
293.15 K, 30000 kPa	807.9 kg/m3	–
293.15 K, 35000 kPa	811.2 kg/m3	–
293.15 K, 40000 kPa	814.2 kg/m3	–
293.15 K, 45000 kPa	817.2 kg/m3	–
293.15 K, 50000 kPa	820.1 kg/m3	–
293.15 K, 55000 kPa	822.9 kg/m3	–
293.15 K, 60000 kPa	825.6 kg/m3	–
293.15 K, 65000 kPa	828.2 kg/m3	–
293.15 K, 70000 kPa	830.8 kg/m3	–
293.15 K, 80000 kPa	835.8 kg/m3	–
293.15 K, 90000 kPa	840.5 kg/m3	–
293.15 K, 100000 kPa	845 kg/m3	–
293.15 K, 110000 kPa	849.4 kg/m3	–
293.15 K, 120000 kPa	853.5 kg/m3	–
293.15 K, 130000 kPa	857.6 kg/m3	–
293.15 K, 140000 kPa	861.2 kg/m3	–
298.15 K, 100 kPa	781.27 kg/m3 and 781.4 kg/m3	1139.7
298.15 K, 1000 kPa	782.1 kg/m3	–
298.15 K, 5000 kPa	785.6 kg/m3	–
298.15 K, 10000 kPa	789.8 kg/m3	–
298.15 K, 15000 kPa	793.7 kg/m3	–
298.15 K, 20000 kPa	797.3 kg/m3	–
298.15 K, 25000 kPa	800.9 kg/m3	–
298.15 K, 30000 kPa	804.3 kg/m3	–
298.15 K, 35000 kPa	807.7 kg/m3	–
298.15 K, 40000 kPa	810.8 kg/m3	–
298.15 K, 45000 kPa	813.8 kg/m3	–
298.15 K, 50000 kPa	816.7 kg/m3	–
298.15 K, 55000 kPa	819.7 kg/m3	–
298.15 K, 60000 kPa	822.5 kg/m3	–
298.15 K, 65000 kPa	825.2 kg/m3	–
298.15 K, 70000 kPa	827.6 kg/m3	–
298.15 K, 80000 kPa	832.8 kg/m3	–
298.15 K, 90000 kPa	837.5 kg/m3	–
298.15 K, 100000 kPa	842.3 kg/m3	–
298.15 K, 110000 kPa	846.4 kg/m3	–
298.15 K, 120000 kPa	850.8 kg/m3	–
298.15 K, 130000 kPa	854.8 kg/m3	–
298.15 K, 140000 kPa	858.7 kg/m3	–
303.15 K, 100 kPa	777 kg/m3	1122.6
313.15 K, 100 kPa	768.21 kg/m3 and 768.2 kg/m3	1087.2
313.15 K, 1000 kPa	769.1 kg/m3	–
313.15 K, 5000 kPa	773 kg/m3	–
313.15 K, 10000 kPa	777.4 kg/m3	–
313.15 K, 15000 kPa	781.8 kg/m3	–
313.15 K, 20000 kPa	785.7 kg/m3	–
313.15 K, 25000 kPa	789.5 kg/m3	–
313.15 K, 30000 kPa	793.3 kg/m3	–
313.15 K, 35000 kPa	796.9 kg/m3	–
313.15 K, 40000 kPa	800.1 kg/m3	–
313.15 K, 45000 kPa	803.4 kg/m3	–
313.15 K, 50000 kPa	806.5 kg/m3	–
313.15 K, 55000 kPa	809.6 kg/m3	–
313.15 K, 60000 kPa	812.5 kg/m3	–
313.15 K, 65000 kPa	815.4 kg/m3	–
313.15 K, 70000 kPa	818.2 kg/m3	–
313.15 K, 80000 kPa	823.4 kg/m3	–
313.15 K, 90000 kPa	828.5 kg/m3	–
313.15 K, 100000 kPa	833.1 kg/m3	–
313.15 K, 110000 kPa	837.8 kg/m3	–
313.15 K, 120000 kPa	842.1 kg/m3	–
313.15 K, 130000 kPa	846.4 kg/m3	–
313.15 K, 140000 kPa	850.4 kg/m3	–
323.15 K, 100 kPa	759.07 kg/m3	1051.8
333.15 K, 100 kPa	749.42 kg/m3 and 749.4 kg/m3	1015.3
333.15 K, 1000 kPa	750.5 kg/m3	–
333.15 K, 5000 kPa	754.9 kg/m3	–
333.15 K, 10000 kPa	760 kg/m3	–
333.15 K, 15000 kPa	764.9 kg/m3	–
333.15 K, 20000 kPa	769.3 kg/m3	–
333.15 K, 25000 kPa	773.6 kg/m3	–
333.15 K, 30000 kPa	777.7 kg/m3	–
333.15 K, 35000 kPa	781.5 kg/m3	–
333.15 K, 40000 kPa	785.3 kg/m3	–
333.15 K, 45000 kPa	788.9 kg/m3	–
333.15 K, 50000 kPa	792.3 kg/m3	–
333.15 K, 55000 kPa	795.6 kg/m3	–
333.15 K, 60000 kPa	798.7 kg/m3	–
333.15 K, 65000 kPa	801.8 kg/m3	–
333.15 K, 70000 kPa	804.8 kg/m3	–
333.15 K, 80000 kPa	810.5 kg/m3	–
333.15 K, 90000 kPa	815.9 kg/m3	–
333.15 K, 100000 kPa	820.9 kg/m3	–
333.15 K, 110000 kPa	825.8 kg/m3	–
333.15 K, 120000 kPa	830.4 kg/m3	–
333.15 K, 130000 kPa	834.8 kg/m3	–
333.15 K, 140000 kPa	839.2 kg/m3	–
353.15 K, 1000 kPa	729.8 kg/m3	–
353.15 K, 5000 kPa	735 kg/m3	–
353.15 K, 10000 kPa	741 kg/m3	–
353.15 K, 15000 kPa	746.5 kg/m3	–
353.15 K, 20000 kPa	751.7 kg/m3	–
353.15 K, 25000 kPa	756.5 kg/m3	–
353.15 K, 30000 kPa	761 kg/m3	–
353.15 K, 35000 kPa	765.4 kg/m3	–
353.15 K, 40000 kPa	769.3 kg/m3	–
353.15 K, 45000 kPa	773.3 kg/m3	–
353.15 K, 50000 kPa	777 kg/m3	–
353.15 K, 55000 kPa	780.6 kg/m3	–
353.15 K, 60000 kPa	784 kg/m3	–
353.15 K, 65000 kPa	787.4 kg/m3	–
353.15 K, 70000 kPa	790.6 kg/m3	–
353.15 K, 80000 kPa	796.7 kg/m3	–
353.15 K, 90000 kPa	802.6 kg/m3	–
353.15 K, 100000 kPa	808 kg/m3	–
353.15 K, 110000 kPa	813.2 kg/m3	–
353.15 K, 120000 kPa	818.1 kg/m3	–
353.15 K, 130000 kPa	822.8 kg/m3	–
353.15 K, 140000 kPa	827.3 kg/m3	–
373.15 K, 1000 kPa	706.6 kg/m3	–
373.15 K, 5000 kPa	712.8 kg/m3	–
373.15 K, 10000 kPa	719.9 kg/m3	–
373.15 K, 15000 kPa	726.3 kg/m3	–
373.15 K, 20000 kPa	732 kg/m3	–
373.15 K, 25000 kPa	737.7 kg/m3	–
373.15 K, 30000 kPa	742.9 kg/m3	–
373.15 K, 35000 kPa	747.8 kg/m3	–
373.15 K, 40000 kPa	752.2 kg/m3	–
373.15 K, 45000 kPa	756.6 kg/m3	–
373.15 K, 50000 kPa	760.7 kg/m3	–
373.15 K, 55000 kPa	764.7 kg/m3	–
373.15 K, 60000 kPa	768.6 kg/m3	–
373.15 K, 65000 kPa	772.1 kg/m3	–
373.15 K, 70000 kPa	775.6 kg/m3	–
373.15 K, 80000 kPa	782.3 kg/m3	–
373.15 K, 90000 kPa	788.5 kg/m3	–
373.15 K, 100000 kPa	794.4 kg/m3	–
373.15 K, 110000 kPa	799.9 kg/m3	–
373.15 K, 120000 kPa	805.3 kg/m3	–
373.15 K, 130000 kPa	810.2 kg/m3	–
373.15 K, 140000 kPa	815.1 kg/m3	–
393.15 K, 1000 kPa	680.4 kg/m3	–
393.15 K, 5000 kPa	688.2 kg/m3	–
393.15 K, 10000 kPa	696.7 kg/m3	–
393.15 K, 15000 kPa	704.4 kg/m3	–
393.15 K, 20000 kPa	711.4 kg/m3	–
393.15 K, 25000 kPa	717.6 kg/m3	–
393.15 K, 30000 kPa	723.5 kg/m3	–
393.15 K, 35000 kPa	729 kg/m3	–
393.15 K, 40000 kPa	734.2 kg/m3	–
393.15 K, 45000 kPa	739 kg/m3	–
393.15 K, 50000 kPa	743.5 kg/m3	–
393.15 K, 55000 kPa	747.9 kg/m3	–
393.15 K, 60000 kPa	752.1 kg/m3	–
393.15 K, 65000 kPa	756.1 kg/m3	–
393.15 K, 70000 kPa	760 kg/m3	–
393.15 K, 80000 kPa	767.2 kg/m3	–
393.15 K, 90000 kPa	773.9 kg/m3	–
393.15 K, 100000 kPa	780.2 kg/m3	–
393.15 K, 110000 kPa	786.2 kg/m3	–
393.15 K, 120000 kPa	791.8 kg/m3	–
393.15 K, 130000 kPa	797.2 kg/m3	–
393.15 K, 140000 kPa	802.3 kg/m3	–
